The values that follow come from publication PMC7847937, “Search for Antimicrobial Activity Among Fifty-Two Natural and Synthetic Compounds Identifies Anthraquinone and Polyacetylene Classes That Inhibit Mycobacterium tuberculosis” (Frontiers in Microbiology, 2021).

Converted amounts (≈) assume the structure as drawn. Where two headings read alike, the source gives them in different places. A value given as a limit tells only on which side of the number the result lay.

Usually MIC stands for the lowest concentration that inhibits growth of the organism. One may read the IC50 as the point on the concentration scale where inhibition reaches its midpoint. One may read the melting point as the temperature of the solid-liquid transition.

Series [1] has as its system Mycobacterium tuberculosis H37Rv. Kind of series: MIC determination by resazurin microtiter plate assay (REMA) with CellTiter-Blue. The series is classed as cell-based. The conditions noted are these: for MIC: M. tuberculosis H37Rv, 7 days, two-fold dilutions 100 to 1.56 μg/mL, Gompertz fit; for antimycobacterial activity (in words): dose response, Figure 6. (In general: Alamar Blue is a resazurin reagent that responds to reducing activity.)

For series [2], the system named is human monocytic THP-1 cell line. Description: Cytotoxicity assay in THP-1 monocytes (CellTiter-Blue, 24 h). The series is classed as cell-based. The conditions noted are these: for IC50: Homo sapiens; for toxicity (in words): compared to the other active compounds.
In series [3] the test system is THP-1 cells. Conditions: cited from earlier work.
Series [4] relates to Mycobacterium tuberculosis H37Rv. Description: Compound library screen against M. tuberculosis at 100 μg/mL (CellTiter-Blue viability). The series is classed as cell-based. Conditions: library screen at 100 μg/mL, 7 days.
For series [5], the system named is human monocyte cells. The conditions noted are these: cited from earlier work.
The subject of series [6] is AML12 hepatocytes. Conditions: cited from earlier work.
The mark [7] stands for this setting: Mycobacterium tuberculosis, H37RV, 168 h, read-out: MIC.
[8] abbreviates: THP-1 cells, 24 h treatment, 200 to 1.56 μg/mL, read-out: IC50.

For `CC(C)=CCc1c(O)c(CC=C(C)C)c2c(c1O)C(=O)C[C@@H](c1ccc(O)c(O)c1)O2` [Compound C24, 6,8-diprenyleriodictyol], the minimum inhibitory concentration (MIC) in series [1] (setting [7]) was at least 100 µg/mL.

For `CCOC(=O)C1=C(C)N(c2ccccc2)C(C)=C(C(=O)OCC)C1c1cc(OC)c(O)c(OC)c1` [Compound C49], the minimal inhibitory concentration (MIC) in series [1] (setting [7]) is at least 100 µg/mL.

For the molecule `CC(C)=CCc1c(O)ccc(C(=O)/C=C/c2ccc(O)cc2)c1O` [Compound C1, Isobavachalcone], the half-maximal inhibitory concentration (IC50) in series [2] (setting [8]) amounted to 45.9 µg/mL (≈ 141 µM). In series [3], the “cytotoxic concentration 50% (CC50)” value is 11.65 µg/mL.

As to `COC(=O)C1=C(N)Oc2cc(O)cc(O)c2C1c1ccc([N+](=O)[O-])cc1` (stereo not drawn) [Compound C16], the “anti-M. tuberculosis activity (in words)” value in series [4] is reported as “not active”.

As to `CCOC(=O)C1=C(C)NC(C)=C(C(=O)OCC)C1c1ccc(O)c(OC)c1` [Compound C38], the minimum inhibitory concentration (MIC) in series [1] (setting [7]) was at least 100 µg/mL.

Consider `COC(=O)C1=C(N)Oc2cc(O)cc(O)c2C1c1ccc(Cl)cc1` (stereo not drawn) [Compound C14], for which the minimum inhibitory concentration (MIC) in series [1] (setting [7]) was at least 100 µg/mL. Further, the “antimycobacterial activity (in words)” value in series [1] was “weak antimycobacterial activity”. For the same molecule, the IC50 in series [2] (setting [8]) was 47.2 µg/mL (≈ 136 µM). Besides, in series [5], the “toxicity to human monocyte cells (in words)” value is reported as “moderately toxic”.

For the molecule `CCOC(=O)C1=C(C)NC(C)=C(C(=O)OCC)C1c1cc(OC)c(OC)c(OC)c1` [Compound C40], in series [1] (setting [7]), the MIC is at least 100 µg/mL.

Take `OCCCC#CC#CC#CC#CCCCO` [Compound C53, Tetradeca-4,6,8,10-tetrayne-1,14-diol]: the melting point was 116.5 to 117 °C. The molecule further had an MIC in series [1] of 17.88 µg/mL (≈ 83.4 µM). Further, the MIC in series [1] (setting [7]) is below 20 µg/mL. For the same molecule, in series [2] (setting [8]), the IC50 was 17 µg/mL (≈ 79.3 µM).

Regarding `CC#CC#CC#CCCCO` [Compound C51, Deca-4,6,8-triyn-1-ol], the IC50 in series [2] (setting [8]) worked out at 170 µg/mL (≈ 1170 µM). Further, the “toxicity (in words)” value in series [2] is “low toxicity”.

With `CC1(C)C=Cc2cc3c(cc2O1)O[C@H]1c2ccc(O)cc2OC[C@@H]31` [Compound C23, Isoneorautenol], the MIC in series [1] was 49.22 µg/mL (≈ 153 µM); in series [1] (setting [7]), 25 to 71 µg/mL (≈ 77.6 to 220 µM). Also, the IC50 in series [2] (setting [8]) amounted to 44.3 µg/mL (≈ 137 µM). For the same molecule, the “concentration up to which no cytotoxicity was shown” value in series [6] is above 123.46 µM.

Turning to `COC(=O)/C(C#N)=C/C=C/c1ccccc1` [Compound C13], the minimum inhibitory concentration (MIC) in series [1] (setting [7]) is at least 100 µg/mL. Besides, the “antimycobacterial activity (in words)” value in series [1] is given as “weak activity”. Also, half-maximal inhibition in series [2] (THP-1, 24 h) (IC50) was put at 95.9 µg/mL (≈ 450 µM). Moreover, the “toxicity to human monocyte cells (in words)” value in series [5] is “moderately toxic”.

For `COc1c(C)c(O)cc2c1C(=O)c1ccccc1C2=O` [Compound C25, rubiadin 1-methyl ether], the “anti-M. tuberculosis activity (in words)” value in series [4] is reported as “no anti-M. tuberculosis activity”.

As to `CCOC(=O)C1=C(C)NC(C)=C(C(=O)OCC)C1c1ccc([N+](=O)[O-])cc1` [Compound C36], the MIC in series [1] (setting [7]) is at least 100 µg/mL.

For the molecule `COC(=O)C1=C(N)Oc2cc(O)c3c(C)cc(=O)oc3c2C1c1ccc([N+](=O)[O-])cc1` (stereo not drawn) [Compound C10], the MIC in series [1] is 29.13 µg/mL (≈ 68.6 µM); in series [1] (setting [7]), 25 to 71 µg/mL (≈ 58.9 to 167 µM). The IC50 in series [2] (setting [8]) came to 64.2 µg/mL (≈ 151 µM). The “toxicity (in words)” value in series [2] was “low toxicity”.

Turning to `COC(=O)C1=C(N)Oc2cc(O)cc(O)c2C1c1ccc(Br)cc1` (stereo not drawn) [Compound C15], the MIC in series [1] (setting [7]) is at least 100 µg/mL.

Regarding `CCOC(=O)C1=C(C)NC(C)=C(C(=O)OCC)C1c1cc(OC)c(O)c(OC)c1` [Compound C41], the minimum inhibitory concentration (MIC) in series [1] (setting [7]) is at least 100 µg/mL.

Turning to `CCOC(=O)C1=C(C)N(c2ccccc2)C(C)=C(C(=O)OCC)C1c1ccc(O)cc1` [Compound C45], in series [1] (setting [7]), the minimal inhibitory concentration (MIC) is at least 100 µg/mL.

Take `CC1(C)C=Cc2c(ccc(C(=O)/C=C/c3ccc(O)cc3)c2O)O1` [Compound C21, 4-hydroxylonchocarpine]: the “anti-M. tuberculosis activity (in words)” value in series [4] is reported as “not mycobactericidal”.

For the molecule `COc1c(C=O)c(O)cc2c1C(=O)c1ccccc1C2=O` [Compound C22, Damnacanthal], the minimum inhibitory concentration (MIC) was 13.07 µg/mL (≈ 46.3 µM) in series [1] and below 20 µg/mL in series [1] (setting [7]). In addition, the concentration for half-maximal inhibition (IC50) in series [2] (setting [8]) came to 21.4 µg/mL (≈ 75.9 µM). In series [3], the “cytotoxic concentration 50% (CC50)” value is 8.87 µg/mL.
